Test results taken from patent US20120115947A1, “COMBINATION/ASSOCIATION OF ADAPALENE AND BENZOYL PEROXIDE FOR TREATING ACNE LESIONS” (Galderma Research & Development, priority 2006, published 2012).

What was measured:
[1] = tested on: patients suffering from acne; assay: Multi-centre, randomized, double-blind clinical study of adapalene + BPO topical gel versus monads and vehicle; type: in vivo; conditions: adapalene 0.1%, BPO 2.5%; for Reduction in lesions (all lesions): 12 weeks, gels once a day, rounded values of the text; for Degree of success (percentage of patients clear or almost clear): week 12, ITT (LOCF), gels once a day for 12 weeks
Experimental: A clinical study for confirmation of efficacy was performed for a topical gel combining adapalene+benzoyl peroxide (BPO). This gel has the following formulation (expressed as % weight/total weight): [table] Protocol: The clinical study was a multi-centre, randomized, double-blind study in parallel groups, to evaluate the tolerance and the efficacy of the above formulation, in comparison with its own individual active substances placed at the same doses in gels of the same formula as that of the fixed combination (individual formulae referred to as “monads”) and in comparison with the gel vehicle (placebo formula): adapalene gel (0.1%), BPO gel (2.5%) and vehicle gel. All the treatments were applied once a day for 12 weeks, to 517 patients suffering from acne. The main efficacy criteria were: the degree of success, defined as the percentage of patients considered as being “clear”, i.e., the patient has no more acne lesions (neither comedones nor inflammatory lesions), reflecting an improvement in the patient's clinical condition, or “almost clear” on the evaluation scale; the reduction of the percentage of inflammatory and non-inflammatory lesions after 12 weeks of treatment.

TPA-induced ear edema = assay: Anti-inflammatory evaluation in TPA-induced ear edema model; type: in vivo, Balb/c mice; conditions: single topical application, T+6 hours
Experimental: Evaluation of the Anti-Inflammatory in Ear Edema Model on Balb/c Mice
The study was carried out with […] ([…]) female 9 weeks aged Balb/c ByJlc mice.
The Edema was induced by a single application of 20 μl of TPA dissolved in acetone at 0.01%.
The treatment was administrated by single topical application of tested compounds dissolved in TPA at 0.01% (groups 3, 4, 5, 6 and 7) and dissolved in TPA 0.01%+BPO (groups 8, 9 and 10).
The treatments activity was measured by inflammation evaluation with ear thickness at T+6 hours.

Compound | Reduction in lesions (all lesions) [1] | Degree of success (percentage of patients clear or almost clear) [1] | Anti-inflammatory effect on TPA-induced ear edema (in words) (TPA-induced ear edema)
COc1ccc(-c2ccc3cc(C(=O)O)ccc3c2)cc1C12CC3CC(CC(C3)C1)C2 [Adapalene, 6-[3-(1-Adamantyl)-4-methoxyphenyl]-2-naphthoic acid] | 35% | 16% | low anti-inflammatory effect
O=C(OOC(=O)c1ccccc1)c1ccccc1 [BPO, benzoyl peroxide] | 36% | 15% | slight anti-inflammatory effect
